Laboratory results as given in patent US20230279025A1, “KRAS G12D INHIBITORS” (Mirati Therapeutics, Inc., priority 2020, published 2023).
Structures can show the parent of a compound that is named as a salt.

Biological target: KRas G12D (Homo sapiens (Human), UniProt P01116, G12D)
Assay: KRas G12D Binding Assay (TR-FRET displacement of Cy5 labelled tracer)
Details: GDP-loaded KRAS G12D (amino acids 1:169), 60 minute incubation at 22° C.
Procedure: After a 60 minute incubation at 22° C., the reaction was measured using a PerkinElmer EnVision multimode plate reader via TR-FRET dual wavelength detection, and the percent of control (POC) calculated using a ratiometric emission factor. […] The POC values were fit to a 4-parameter logistic curve and the IC50 value was determined as the concentration where the curve crosses 50 POC.
ND stands for “not determined.”

Chain of KRas G12D (P01116 other isoform, or with tags, fused parts or gaps G12D): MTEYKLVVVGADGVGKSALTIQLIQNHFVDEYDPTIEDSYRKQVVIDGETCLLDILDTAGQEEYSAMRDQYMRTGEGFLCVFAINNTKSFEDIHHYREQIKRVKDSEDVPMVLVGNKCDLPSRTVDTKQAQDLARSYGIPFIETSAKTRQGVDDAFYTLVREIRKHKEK

Row | Structure (SMILES) | IC50 [nM]
1 | C[C@H]1CN2CCC[C@@]2(COc2nc(N3CC4CCC(C3)N4)c3cnc(-c4cccc5cccc(Cl)c45)c(F)c3n2)C1 (stereo in doubt) [Example 227, 4-((1R,5S)-3,8-diazabicyclo[3.2.1]octan-3-yl)-7-(8-chloronaphthalen-1-yl)-8-fluoro-2-((2-methyltetrahydro-1H-pyrrolizin-7a(5H)-yl)methoxy)pyrido[4,3-d]pyrimidine bis-hydrochloride] | 6.4
2 | Fc1c(-c2cccc3cccc(Cl)c23)ncc2c(N3C[C@H]4CC[C@@H](C3)N4)nc(OC[C@]34CCCN3[C@@H](Cn3cccn3)CC4)nc12 [Example 418, 2-(((3R,7aR)-3-((1H-pyrazol-1-yl)methyl)hexahydro-1H-pyrrolizin-7a-yl)methoxy)-4-((1R,5S)-3,8-diazabicyclo[3.2.1]octan-3-yl)-7-(8-chloronaphthalen-1-yl)-8-fluoropyrido[4,3-d]pyrimidine] | 7.5
3 | CN1C[C@H](NC(=O)c2ccc(C=O)cc2)C[C@H]1COc1nc(N2C[C@H]3CC[C@@H](C2)N3)c2cnc(-c3cccc4cccc(Cl)c34)c(F)c2n1 [Example 353, N-((3R,5S)-5-(((4-((1R,5S)-3,8-diazabicyclo[3.2.1]octan-3-yl)-7-(8-chloronaphthalen-1-yl)-8-fluoropyrido[4,3-d]pyrimidin-2-yl)oxy)methyl)-1-methylpyrrolidin-3-yl)-4-formylbenzamide] | 333
4 | Oc1cc(-c2ncc3c(N4C[C@H]5CC[C@@H](C4)N5)nc(OCC45CCCN4C(CF)CC5)nc3c2F)c2ccccc2c1 (mixture of isomers) [Example 384, 4-(4-((1R,5S)-3,8-diazabicyclo[3.2.1]octan-3-yl)-8-fluoro-2-((3-(fluoromethyl)tetrahydro-1H-pyrrolizin-7a(5H)-yl)methoxy)pyrido[4,3-d]pyrimidin-7-yl)naphthalen-2-ol] | 2.4
5 | Cc1cc(-c2ncc3c(N4C[C@H]5CC[C@@H](C4)N5)nc(OCC45CCCN4CCC5)nc3c2F)c2c(Cl)cccc2c1 [Example 175, 4-((1R,5S)-3,8-diazabicyclo[3.2.1]octan-3-yl)-7-(8-chloro-3-methylnaphthalen-1-yl)-8-fluoro-2-((hexahydro-1H-pyrrolizin-7a-yl)methoxy)pyrido[4,3-d]pyrimidine] | 63.8
6 | Fc1c(-c2ccccc2OC(F)(F)F)ncc2c(N3C[C@H]4CC[C@@H](C3)N4)nc(OCC34CCCN3CCC4)nc12 [Example 229, 4-((1R,5S)-3,8-diazabicyclo[3.2.1]octan-3-yl)-8-fluoro-2-((tetrahydro-1H-pyrrolizin-7a(5H)-yl)methoxy)-7-(2-(trifluoromethoxy)phenyl)pyrido[4,3-d]pyrimidine bis-hydrochloride] | 121
7 | Cc1cccc2cccc(-c3ncc4c(N5C[C@H]6CC[C@@H](C5)N6)nc(OCC56CCCN5CCC6)nc4c3F)c12 [Example 334, 4-((1R,5S)-3,8-diazabicyclo[3.2.1]octan-3-yl)-8-fluoro-7-(8-methylnaphthalen-1-yl)-2-((tetrahydro-1H-pyrrolizin-7a(5H)-yl)methoxy)pyrido[4,3-d]pyrimidine] | 10
8 | Fc1c(-c2ccccc2[C@@H]2C[C@H]2F)ncc2c(N3C[C@H]4CC[C@@H](C3)N4)nc(OCC34CCCN3CCC4)nc12 (relative stereo) [Example 285, 4-((1R,5S)-3,8-diazabicyclo[3.2.1]octan-3-yl)-8-fluoro-7-(2-(trans-2-fluorocyclopropyl)phenyl)-2-((hexahydro-1H-pyrrolizin-7a-yl)methoxy)pyrido[4,3-d]pyrimidine] | 279
9 | Fc1c(-c2c3ccccc3cc3[nH]ncc23)ncc2c(N3C[C@H]4CC[C@@H](C3)N4)nc(OCC34CCCN3CCC4)nc12 [Example 257, 4-(4-((1R,5S)-3,8-diazabicyclo[3.2.1]octan-3-yl)-8-fluoro-2-((hexahydro-1H-pyrrolizin-7a-yl)methoxy)pyrido[4,3-d]pyrimidin-7-yl)-1H-benzo[f]indazole] | 5.1
10 | CCn1ccc2cccc(-c3ncc4c(N5C[C@H]6CC[C@@H](C5)N6)nc(OCC56CCCN5CCC6)nc4c3F)c21 [Example 427, 4-((1R,5S)-3,8-diazabicyclo[3.2.1]octan-3-yl)-7-(1-ethyl-1H-indol-7-yl)-8-fluoro-2-((hexahydro-1H-pyrrolizin-7a-yl)methoxy)pyrido[4,3-d]pyrimidine] | 35.3
11 | Nc1cccc(F)c1-c1ncc2c(N3C[C@H]4CC[C@@H](C3)N4)nc(OCC34CCCN3CCC4)nc2c1F [Example 265, 2-(4-((1R,5S)-3,8-diazabicyclo[3.2.1]octan-3-yl)-8-fluoro-2-((hexahydro-1H-pyrrolizin-7a-yl)methoxy)pyrido[4,3-d]pyrimidin-7-yl)-3-fluoroaniline] | 794
12 | COC1(OC)CN2CCCC2(COc2nc(N3C[C@H]4CC[C@@H](C3)N4)c3cnc(-c4cccc5cccc(Cl)c45)c(F)c3n2)C1 (stereo partly drawn) [Example 404, 4-((1R,5S)-3,8-diazabicyclo[3.2.1]octan-3-yl)-7-(8-chloronaphthalen-1-yl)-2-((2,2-dimethoxytetrahydro-H-pyrrolizin-7a(5H)-yl)methoxy)-8-fluoropyrido[4,3-d]pyrimidine] | 60.8
13 | Fc1c(-c2cccc3cccc(Cl)c23)ncc2c(N3C[C@H]4CC[C@@H](C3)N4)nc(OCC34CCCN3CCOC4)nc12 (stereo partly drawn) [Example 200, 8a-(((4-((1R,5S)-3,8-diazabicyclo[3.2.1]octan-3-yl)-7-(8-chloronaphthalen-1-yl)-8-fluoropyrido[4,3-d]pyrimidin-2-yl)oxy)methyl)hexahydro-1H-pyrrolo[2,1-c][1,4]oxazine] | 230
14 | O=C(OC[C@H]1CC[C@@]2(COc3nc(N4CC5CCC(C4)N5)c4cnc(-c5cccc6cccc(Cl)c56)c(F)c4n3)CCCN12)N1CCCC1 [Example 443, ((3R,7aR)-7a-(((4-(3,8-diazabicyclo[3.2.1]octan-3-yl)-7-(8-chloronaphthalen-1-yl)-8-fluoropyrido[4,3-d]pyrimidin-2-yl)oxy)methyl)hexahydro-1H-pyrrolizin-3-yl)methyl pyrrolidine-1-carboxylate] | 3.2
15 | CC(C)c1ccncc1-c1ncc2c(N3C[C@H]4CC[C@@H](C3)N4)nc(OCC34CCCN3CCC4)nc2c1F [Example 306, 4-((1R,5S)-3,8-diazabicyclo[3.2.1]octan-3-yl)-8-fluoro-2-((hexahydro-1H-pyrrolizin-7a-yl)methoxy)-7-(4-isopropylpyridine-3-yl)pyrido[4,3-d]pyrimidine] | 260
16 | Fc1c(-c2cccc3cccc(Cl)c23)ncc2c(N3C[C@H]4CC[C@@H](C3)N4)nc(OCC34CC(F)CN3CC(F)C4)nc12 (stereo partly drawn) [Example 425, 4-((1R,5S)-3,8-diazabicyclo[3.2.1]octan-3-yl)-7-(8-chloronaphthalen-1-yl)-2-((2,6-difluorohexahydro-1H-pyrrolizin-7a-yl)methoxy)-8-fluoropyrido[4,3-d]pyrimidine] | 90.2
17 | O[C@H]1CN2CCC[C@]2(COc2nc(N3CC4CCC(C3)N4)c3cnc(-c4cccc5cccc(Cl)c45)c(F)c3n2)C1 (stereo in doubt) [Example 224, 7a-(((4-((1R,5S)-3,8-diazabicyclo[3.2.1]octan-3-yl)-7-(8-chloronaphthalen-1-yl)-8-fluoropyrido[4,3-d]pyrimidin-2-yl)oxy)methyl)hexahydro-1H-pyrrolizin-2-ol bis-hydrochloride] | 27
18 | COC[C@H]1CC[C@@]2(COc3nc(N4CC5CCC(C4)N5)c4cnc(-c5cc(O)cc6ccccc56)c(F)c4n3)CCCN12 (stereo in doubt) [Example 389, 4-(4-((1R,5S)-3,8-diazabicyclo[3.2.1]octan-3-yl)-8-fluoro-2-((3-(methoxymethyl)tetrahydro-1H-pyrrolizin-7a(5H)-yl)methoxy)pyrido[4,3-d]pyrimidin-7-yl)naphthalen-2-ol] | 1.4
19 | Oc1ccc(CC(F)(F)F)c(-c2ncc3c(N4C[C@H]5CC[C@@H](C4)N5)nc(OC[C@@]45CCCN4C[C@H](F)C5)nc3c2F)c1 [Example 424, 3-(4-((1R,5S)-3,8-diazabicyclo[3.2.1]octan-3-yl)-8-fluoro-2-(((2R,7aS)-2-fluorohexahydro-1H-pyrrolizin-7a-yl)methoxy)pyrido[4,3-d]pyrimidin-7-yl)-4-(2,2,2-trifluoroethyl)phenol] | 5
20 | FCCc1cccc2cccc(-c3ncc4c(N5C[C@H]6CC[C@@H](C5)N6)nc(OCC56CCCN5CCC6)nc4c3F)c12 [Example 248, 4-((1R,5S)-3,8-diazabicyclo[3.2.1]octan-3-yl)-8-fluoro-7-(8-(2-fluoroethyl)naphthalen-1-yl)-2-((tetrahydro-1H-pyrrolizin-7a(5H)-yl)methoxy)pyrido[4,3-d]pyrimidine] | 3.2
21 | C#Cc1cccc2cccc(-c3ncc4c(N5C[C@H]6CC[C@@H](C5)N6)nc(OC[C@@H]5CCCN5C)nc4c3F)c12 [Example 206, 4-((1R,5S)-3,8-diazabicyclo[3.2.1]octan-3-yl)-7-(8-ethynylnaphthalen-1-yl)-8-fluoro-2-(((S)-1-methylpyrrolidin-2-yl)methoxy)pyrido[4,3-d]pyrimidine] | 5.1
22 | Cc1cc2[nH]ccc2c(-c2ncc3c(N4C[C@H]5CC[C@@H](C4)N5)nc(OCC45CCCN4CCC5)nc3c2F)c1C [Example 250, 4-((1R,5S)-3,8-diazabicyclo[3.2.1]octan-3-yl)-7-(5,6-dimethyl-1H-indol-4-yl)-8-fluoro-2-((hexahydro-1H-pyrrolizin-7a-yl)methoxy)pyrido[4,3-d]pyrimidine] | 28.2
23 | O[C@@H]1C[C@@H]2CN(c3nc(OCCc4nccn4C(F)F)nc4c(F)c(-c5cccc6cccc(Cl)c56)ncc34)C[C@H]1N2 [Example 166, (1R,5R,6R)-3-(7-(8-chloronaphthalen-1-yl)-2-(2-(1-(difluoromethyl)-1H-imidazol-2-yl)ethoxy)-8-fluoropyrido[4,3-d]pyrimidin-4-yl)-3,8-diazabicyclo[3.2.1]octan-6-ol] | 1290
